Laboratory results reported in patent US20250049796A1, “USE OF 4-THIAZOL-N-(PYRIDIN-2-YL)PYRIMIDIN-2-AMINE DERIVATIVES IN COMBINATION THERAPIES FOR CANCER” (Aucentra Therapeutics Pty Ltd, priority 2022, published 2025).

Columns and labels:
[1] = test system: EMT6 triple-negative breast cancer cells; assay: In vivo anti-tumour activity in mice with a breast cancer cell syngeneic allograft; settings: 150 mg/kg QD PO
Description: (§1) Murine triple-negative breast cancer EMT6 tumour cells (ATCC® CRL-2755™) and colorectal cancer CT26.WT cells (ATCC® CRL-2638™) were cultured and expanded in RPMI-1640 medium (Roswell Park Memorial Institute Medium-1640) with L-glutamine and sodium bicarbonate (Sigma-Aldrich, Macquarie Park, NSW, Australia) supplemented with 10% heat-inactivated foetal bovine serum (FBS). Cells were cultured in an incubator at 5% CO2 37° C.
(§2) EMT6 cells were harvested and re-suspended in a 1:1 mixture of Matrigel™ (#354234; Corning Life Sciences, Corning, NY, United States of America) and serum-free RPMI-1640 medium, and thereafter injected sub-cutaneously (sc) (7×10^5 cells in a volume of […]) into the right flank of each female BALB/c mouse. After the tumour volume reached ˜100 mm^3, the mice were randomised into two groups (n=4/group) and given vehicle (1% CMC in water), or compound 1 (150 mg/kg) once daily by oral administration (QD PO). […] The level of phosphorylated RB (p-S807/11) was also found to be reduced in the EMT6 tumours collected two hours post-final dose, confirming CDK4/6 inhibition (FIG. 1B). A reduction in the […], PDL-1, in the spleen samples of the mice isolated two hours post-final dose was also observed, indicating the immunotherapeutic potential of compound 1 (FIG. 1C).

[2] = test system: CD3+, CD4+, CDK8+ and CD45+ T-cells; assay: Immune markers (T cell population in spleen) in CT26.WT-bearing treated mice; type: in vivo, mouse
Description: (§3) In another experiment, mice bearing CT26.WT colorectal cancer cells were treated with vehicle (distilled water QD PO), compound 1 (100 mg/kg QD PO), an anti-PD-1 antibody ([…] ip), or compound 1 plus the anti-PD-1 antibody.

[3] = test system: CT26.WT colorectal cancer cells; assay: In vivo anti-tumour activity in mice with a colorectal cancer cell syngeneic allograft (first experiment); design: species or system mouse (female BALB/c)
Description: as §1
Similarly, mice bearing CT26.WT colorectal cancer cells were matched and randomised to vehicle or treatment groups (n=8/group). Female BALB/c mice with mean tumour volume ˜100 mm^3 were given vehicle (distilled water QD PO), compound 1 (100 mg/kg QD PO), an anti-PD1 antibody (RMP1-14-derived mouse monoclonal antibody; Assay Matrix Pty Ltd, Ivanhoe North, VIC, Australia), 200 μg/mouse/week by intraperitoneal (ip) administration) or compound 1 plus anti-PD-1 antibody.

PDL-1 = assay: PD-L1 level in samples of EMT6-bearing treated mice; type: in vivo, mouse (female BALB/c); settings: spleen samples isolated two hours post-final dose, 150 mg/kg QD PO
Description: as §2

[4] = test system: phosphorylated RB (p-S807/11); assay: Phosphorylated RB level in EMT6 tumours of treated mice; type: in vivo, mouse (female BALB/c); settings: EMT6 tumours collected two hours post-final dose, 150 mg/kg QD PO
Description: as §2

[5] = test system: CT26.WT colorectal cancer cells; assay: In vivo anti-tumour activity in CT26.WT syngeneic mouse model (second experiment)
Description: as §1, §3

Structure (SMILES)	tumour growth inhibition (% TGI) ([1]; EMT6 allograft, final day of tumour measurement) [%]	level of immune markers CD3+, CD4+, CDK8+ and CD45+ T-cells [2]	tumour growth inhibition (% TGI), used alone ([3]; 100 mg/kg QD PO alone, day 21 of dosing) [%]	tumour growth inhibition (% TGI), combination with anti-PD-1 antibody ([3]; 100 mg/kg QD PO plus anti-PD-1 antibody 200 μg/mouse/week ip, day 21 of dosing) [%]	survival of the mice, combination with anti-PD-1 antibody ([3]; 100 mg/kg QD PO plus anti-PD-1 antibody, p<0.001)	survival of the mice, single agent ([3]; 100 mg/kg QD PO, p<0.001)	level of immune checkpoint protein ligand PDL-1 (PDL-1)	weight loss or overt toxicity ([1]; EMT6-bearing mice, throughout the study)	level of phosphorylated RB (p-S807/11) [4]	TGI, used alone ([5]; 100 mg/kg QD PO alone, day 15 of dosing) [%]	TGI, combination with anti-PD-1 antibody ([5]; 100 mg/kg QD PO plus anti-PD-1 antibody (150 g/mouse/week ip), day 15 of dosing) [%]	anti-tumour efficacy of combination compared with anti-PD-1 alone ([5]; compound 1 plus anti-PD-1 antibody, p=0.03)
CNc1nc(C)c(-c2nc(Nc3ccc(CN4CCN(C(C)C)CC4)cn3)ncc2F)s1 [Compound 12, 5-(5-fluoro-2-((5-((4-isopropylpiperazin-1-yl)methyl)pyridin-2-yl)amino)pyrimidin-4-yl)-N,4-dimethylthiazol-2-amine]	47	–	–	–	–	–	–	–	–	–	–	–
CCN1CCN(Cc2ccc(Nc3ncc(F)c(-c4sc(NC5CCCC5)nc4C)n3)nc2)CC1 [Compound 1, N-cyclopentyl-5-(2-((5-((4-ethylpiperazin-1-yl)methyl)pyridin-2-yl)amino)-5-fluoropyrimidin-4-yl)-4-methylthiazol-2-amine]	–	increased level	75	91	significantly prolong	significantly prolong	reduction	No significant weight loss or any overt toxicity	reduced	77	91	more effective
